Assay results from ChEMBL document CHEMBL3108766, “Cladosins A-E, hybrid polyketides from a deep-sea-derived fungus, Cladosporium sphaerospermum” (J Nat Prod, 2014).

Test system: Influenza A virus
Test: Antiviral activity against influenza A virus H1N1 infected in MDCK cells assessed as inhibition of virus-induced cytopathic effect after 48 hrs by crystal violet staining assay
Type: functional, organism-based

Compound | IC50
CC(C)=C1NC(=O)/C(=C(N)\C=C\C[C@H](C)O)C1=O | 276 µM
NC(=O)c1ncn([C@@H]2O[C@H](CO)[C@@H](O)[C@H]2O)n1 [RIBAVIRIN] | 131 µM
